Measured values from publication PMC5218480 (PLoS ONE, 2017).

System: MV-4-11 cells
Test: Gene expression microarray analysis (Affymetrix PrimeView) and GSEA
Assay type: cell-based, human
Set-up: RFU PODN (11730768_x_at) / Fold change /veh PODN (11730768_x_at) / RFU LINC00158 (11744669_a_at) / Fold change /veh LINC00158 (11744669_a_at) / RFU DUSP10 (11751237_a_at) / Fold change /veh DUSP10 (11751237_a_at) / RFU ID3 (11757404_x_at) / Fold change /veh ID3 (11757404_x_at) / RFU PLEKHG5 (11737974_s_at) / Fold change /veh PLEKHG5 (11737974_s_at) / RFU LRRC4B (11730491_at) / Fold change /veh LRRC4B (11730491_at) / RFU GIMAP4 (11747438_a_at) / Fold change /veh GIMAP4 (11747438_a_at) / RFU KRT8 (11758183_x_at) / Fold change /veh KRT8 (11758183_x_at) / RFU CNN1 (11734310_a_at) / Fold change /veh CNN1 (11734310_a_at) / RFU VPS37D (11726825_at) / Fold change /veh VPS37D (11726825_at) / RFU C10orf10 (11716522_x_at) / Fold change /veh C10orf10 (11716522_x_at) / RFU KIR2DL2 /// KIR2DL4 /// KIR2DL5A /// KIR2DL5B /// KIR2DS1 /// KIR2DS2 /// KIR2DS3 /// KIR2DS4 /// KIR3DL3 /// KIR3DL3 /// KIR3DS1 (11738374_at) / Fold change /veh KIR2DL2 /// KIR2DL4 /// KIR2DL5A /// KIR2DL5B /// KIR2DS1 /// KIR2DS2 /// KIR2DS3 /// KIR2DS4 /// KIR3DL3 /// KIR3DL3 /// KIR3DS1 (11738374_at) / RFU C1QL1 (11718748_at) / Fold change /veh C1QL1 (11718748_at) / RFU TMPRSS4 (11747572_a_at) / Fold change /veh TMPRSS4 (11747572_a_at) / RFU HAMP (11756126_x_at) / Fold change /veh HAMP (11756126_x_at) / RFU RNFT2 (11725882_a_at) / Fold change /veh RNFT2 (11725882_a_at) / RFU NR4A2 (11747474_a_at) / Fold change /veh NR4A2 (11747474_a_at) / RFU ABCC12 (11746883_a_at) / Fold change /veh ABCC12 (11746883_a_at) / RFU TMEM136 (11760407_x_at) / Fold change /veh TMEM136 (11760407_x_at) / RFU CLDN22 /// WWC2 (11732394_at) / Fold change /veh CLDN22 /// WWC2 (11732394_at) / RFU HLA-DPB1 (11760878_x_at) / Fold change /veh HLA-DPB1 (11760878_x_at) / RFU SPINT1 (11716480_a_at) / Fold change /veh SPINT1 (11716480_a_at) / RFU GAP43 (11754022_s_at) / Fold change /veh GAP43 (11754022_s_at) / RFU A4GNT (11735810_at) / Fold change /veh A4GNT (11735810_at) / RFU PRB3 (11715151_x_at) / Fold change /veh PRB3 (11715151_x_at) / RFU TUBB4B (11761932_at) / Fold change /veh TUBB4B (11761932_at) / RFU CAPN14 (11732068_a_at) / Fold change /veh CAPN14 (11732068_a_at) / RFU TMCC2 (11721928_a_at) / Fold change /veh TMCC2 (11721928_a_at) / RFU IRGQ (11745062_a_at) / Fold change /veh IRGQ (11745062_a_at) / RFU FAM174B (11720279_a_at) / Fold change /veh FAM174B (11720279_a_at) / RFU TMPRSS4 (11748680_a_at) / Fold change /veh TMPRSS4 (11748680_a_at) / RFU FAM212B (11763350_a_at) / Fold change /veh FAM212B (11763350_a_at) / RFU PLEKHG5 (11743358_a_at) / Fold change /veh PLEKHG5 (11743358_a_at) / RFU ZSCAN30 (11745921_a_at) / Fold change /veh ZSCAN30 (11745921_a_at) / RFU CMKLR1 (11741424_a_at) / Fold change /veh CMKLR1 (11741424_a_at) / RFU LOC101060620 /// MAPK8IP1 (11723275_at) / Fold change /veh LOC101060620 /// MAPK8IP1 (11723275_at) / RFU SPTSSB (11747773_x_at) / Fold change /veh SPTSSB (11747773_x_at) / RFU PRSS12 (11739890_at) / Fold change /veh PRSS12 (11739890_at) / RFU BIN1 (11741810_x_at) / Fold change /veh BIN1 (11741810_x_at) / RFU WNT11 (11732464_a_at) / Fold change /veh WNT11 (11732464_a_at) / RFU C10orf10 (11716521_a_at) / Fold change /veh C10orf10 (11716521_a_at) / RFU C5orf56 (11738089_at) / Fold change /veh C5orf56 (11738089_at) / RFU CYB561 (11721691_x_at) / Fold change /veh CYB561 (11721691_x_at) / RFU ANKRD19P (11752326_a_at) / Fold change /veh ANKRD19P (11752326_a_at) / RFU OR2T12 /// OR2T33 /// OR2T8 (11738714_s_at) / Fold change /veh OR2T12 /// OR2T33 /// OR2T8 (11738714_s_at) / RFU VCAN (11748164_a_at) / Fold change /veh VCAN (11748164_a_at) / RFU JSRP1 (11732532_at) / Fold change /veh JSRP1 (11732532_at) / RFU KRTAP10-11 (11738290_x_at) / Fold change /veh KRTAP10-11 (11738290_x_at) / RFU MYO3A (11730013_a_at) / Fold change /veh MYO3A (11730013_a_at) / RFU EBF3 (11725865_a_at) / Fold change /veh EBF3 (11725865_a_at) / RFU CAMK2N1 (11719241_x_at) / Fold change /veh CAMK2N1 (11719241_x_at) / RFU C5orf56 (11738088_a_at) / Fold change /veh C5orf56 (11738088_a_at) / RFU OLFML3 (11715873_a_at) / Fold change /veh OLFML3 (11715873_a_at) / RFU LOC100653217 /// NTM (11731650_a_at) / Fold change /veh LOC100653217 /// NTM (11731650_a_at) / RFU MAPK11 (11762145_a_at) / Fold change /veh MAPK11 (11762145_a_at) / RFU FIZ1 (11724087_x_at) / Fold change /veh FIZ1 (11724087_x_at) / RFU OASL (11726364_x_at) / Fold change /veh OASL (11726364_x_at) / RFU SOX15 (11748057_x_at) / Fold change /veh SOX15 (11748057_x_at) / RFU CD79A (11719716_a_at) / Fold change /veh CD79A (11719716_a_at) / RFU HIST1H1D (11736915_at) / Fold change /veh HIST1H1D (11736915_at) / RFU CASKIN2 (11723855_a_at) / Fold change /veh CASKIN2 (11723855_a_at) / RFU LOC730098 (11760151_x_at) / Fold change /veh LOC730098 (11760151_x_at) / RFU OR4N2 (11742367_at) / Fold change /veh OR4N2 (11742367_at) / RFU PRRT2 (11749266_a_at) / Fold change /veh PRRT2 (11749266_a_at) / RFU SNX32 (11753110_a_at) / Fold change /veh SNX32 (11753110_a_at) / RFU CDHR5 (11726645_a_at) / Fold change /veh CDHR5 (11726645_a_at) / RFU RCAN1 (11760418_a_at) / Fold change /veh RCAN1 (11760418_a_at) / RFU FAM167A (11723789_a_at) / Fold change /veh FAM167A (11723789_a_at) / RFU FAM26E (11764081_at) / Fold change /veh FAM26E (11764081_at) / RFU ISYNA1 (11749810_s_at) / Fold change /veh ISYNA1 (11749810_s_at) / RFU ACY1 (11761880_at) / Fold change /veh ACY1 (11761880_at) / RFU 11764098_at / Fold change /veh 11764098_at / RFU SAMD14 (11745864_x_at) / Fold change /veh SAMD14 (11745864_x_at) / RFU NPB (11741838_a_at) / Fold change /veh NPB (11741838_a_at) / RFU TMPRSS6 (11731388_a_at) / Fold change /veh TMPRSS6 (11731388_a_at) / RFU KRTAP10-2 (11738614_at) / Fold change /veh KRTAP10-2 (11738614_at) / RFU ARHGAP8 /// PRR5-ARHGAP8 (11727945_x_at) / Fold change /veh ARHGAP8 /// PRR5-ARHGAP8 (11727945_x_at) / RFU KRTAP5-7 /// NADSYN1 (11734609_at) / Fold change /veh KRTAP5-7 /// NADSYN1 (11734609_at) / RFU RASL12 (11751679_a_at) / Fold change /veh RASL12 (11751679_a_at) / RFU CDKN2B (11736163_a_at) / Fold change /veh CDKN2B (11736163_a_at) / RFU PRF1 (11729649_at) / Fold change /veh PRF1 (11729649_at) / RFU, ZNF638 /// ZNF638-IT1 / Fold change vs veh, ZNF638 /// ZNF638-IT1 / RFU, PANK3 / Fold change vs veh, PANK3 / RFU, SH3YL1 / Fold change vs veh, SH3YL1 / RFU, ZEB2 / Fold change vs veh, ZEB2 / RFU, NRIP1 / Fold change vs veh, NRIP1 / RFU, PTTG1IP / Fold change vs veh, PTTG1IP / RFU, CAPN2 / Fold change vs veh, CAPN2 / RFU, MED14 / Fold change vs veh, MED14 / RFU, SNORA58 / Fold change vs veh, SNORA58 / RFU, C1orf63 / Fold change vs veh, C1orf63 / RFU, LRRFIP1 / Fold change vs veh, LRRFIP1 / RFU, NDUFAF7 / Fold change vs veh, NDUFAF7 / RFU, SLC12A2 / Fold change vs veh, SLC12A2 / RFU, IBTK / Fold change vs veh, IBTK / RFU, ESF1 / Fold change vs veh, ESF1 / Fold change vs veh, TMEM50B / RFU, TAOK1 / Fold change vs veh, TAOK1 / RFU, ACBD3 / Fold change vs veh, ACBD3 / RFU, TMA16 / Fold change vs veh, TMA16 / RFU, RWDD3 / Fold change vs veh, RWDD3 / RFU, BCAT1 / Fold change vs veh, BCAT1 / RFU, EDEM3 / Fold change vs veh, EDEM3 / RFU, TMEM33 / Fold change vs veh, TMEM33 / RFU, WDR75 / Fold change vs veh, WDR75 / RFU, AHCTF1 / Fold change vs veh, AHCTF1 / RFU, TFRC / Fold change vs veh, TFRC / RFU, ZDHHC17 / Fold change vs veh, ZDHHC17 / RFU, NOM1 / Fold change vs veh, NOM1 / RFU, ARL8B / Fold change vs veh, ARL8B / RFU, ZBTB11 / Fold change vs veh, ZBTB11 / RFU, TAMM41 / Fold change vs veh, TAMM41 / RFU, KIAA1704 /// LOC100996395 / Fold change vs veh, KIAA1704 /// LOC100996395 / RFU, ING1 / Fold change vs veh, ING1 / RFU, TRMT61B / Fold change vs veh, TRMT61B / RFU, FUBP3 / Fold change vs veh, FUBP3 / RFU, TP53 / Fold change vs veh, TP53 / RFU, TNKS2 / Fold change vs veh, TNKS2 / RFU, ZFP14 / Fold change vs veh, ZFP14 / RFU, ACTR2 / Fold change vs veh, ACTR2 / RFU, PPP3R1 / Fold change vs veh, PPP3R1 / RFU, PIK3R1 / Fold change vs veh, PIK3R1 / RFU, HNRNPA1 / Fold change vs veh, HNRNPA1 / RFU, RNF170 / Fold change vs veh, RNF170 / RFU, ZNF28 / Fold change vs veh, ZNF28 / RFU, RNGTT / Fold change vs veh, RNGTT / RFU, OGT / Fold change vs veh, OGT / RFU, BRD1 / Fold change vs veh, BRD1 / RFU, MARS / Fold change vs veh, MARS / RFU, ZNF655 / Fold change vs veh, ZNF655 / RFU, FAHD1 / Fold change vs veh, FAHD1 / RFU, BDP1 / Fold change vs veh, BDP1 / RFU, LRRCC1 / Fold change vs veh, LRRCC1 / RFU, ARID1A / Fold change vs veh, ARID1A / RFU, ZNF146 / Fold change vs veh, ZNF146 / RFU, ZNF330 / Fold change vs veh, ZNF330 / RFU, GPN3 / Fold change vs veh, GPN3 / RFU, C9orf123 / Fold change vs veh, C9orf123 / RFU, N4BP2L2 / Fold change vs veh, N4BP2L2 / RFU, ARFIP1 / Fold change vs veh, ARFIP1 / RFU, FAM179B / Fold change vs veh, FAM179B / RFU, BCL10 / Fold change vs veh, BCL10 / RFU, UHRF1BP1L / Fold change vs veh, UHRF1BP1L / RFU, BET1 / Fold change vs veh, BET1 / RFU, CNOT2 / Fold change vs veh, CNOT2 / RFU, ZNF268 / Fold change vs veh, ZNF268 / Fold change vs veh, ZNF507 / RFU, DGCR2 / Fold change vs veh, DGCR2 / RFU, WDSUB1 / Fold change vs veh, WDSUB1 / Fold change vs veh, HSP90B1 /// MIR3652 / RFU, ADSS / Fold change vs veh, ADSS / RFU, GK / Fold change vs veh, GK / RFU, ZNF148 / Fold change vs veh, ZNF148 / RFU, TAF9 / Fold change vs veh, TAF9 / RFU, SLC1A5 / Fold change vs veh, SLC1A5 / RFU, SLMO2 / Fold change vs veh, SLMO2 / RFU, ABCC4 / Fold change vs veh, ABCC4 / RFU, LOC101060439 /// RAP1B / Fold change vs veh, LOC101060439 /// RAP1B / RFU, RFX7 / Fold change vs veh, RFX7 / RFU, GTPBP10 / Fold change vs veh, GTPBP10 / RFU, CNEP1R1 / Fold change vs veh, CNEP1R1 / RFU, BIVM-ERCC5 /// ERCC5 / Fold change vs veh, BIVM-ERCC5 /// ERCC5 / RFU, ILF3 / Fold change vs veh, ILF3 / RFU 11762660_at / Fold change /veh 11762660_at / RFU VCAN (11757783_s_at) / Fold change /veh VCAN (11757783_s_at) / RFU DDX43 (11728927_at) / Fold change /veh DDX43 (11728927_at) / RFU KRT8 (11758188_x_at) / Fold change /veh KRT8 (11758188_x_at) / RFU NKD1 (11759106_at) / Fold change /veh NKD1 (11759106_at) / RFU SRD5A1 (11742802_a_at) / Fold change /veh SRD5A1 (11742802_a_at) / RFU TPSAB1 /// TPSB2 (11721975_s_at) / Fold change /veh TPSAB1 /// TPSB2 (11721975_s_at) / RFU GSTM3 (11746129_a_at) / Fold change /veh GSTM3 (11746129_a_at) / RFU IL23R (11737362_x_at) / Fold change /veh IL23R (11737362_x_at) / RFU TMEM51 (11727254_a_at) / Fold change /veh TMEM51 (11727254_a_at) / RFU PIWIL2 (11732686_x_at) / Fold change /veh PIWIL2 (11732686_x_at) / RFU ORM1 (11744905_x_at) / Fold change /veh ORM1 (11744905_x_at) / RFU CCDC152 (11743942_at) / Fold change /veh CCDC152 (11743942_at) / RFU ECM1 (11717891_a_at) / Fold change /veh ECM1 (11717891_a_at) / RFU IL23R (11748794_a_at) / Fold change /veh IL23R (11748794_a_at) / RFU TNFAIP8L3 (11732012_x_at) / Fold change /veh TNFAIP8L3 (11732012_x_at) / RFU MBOAT4 (11741988_at) / Fold change /veh MBOAT4 (11741988_at) / RFU 11764193_at / Fold change /veh 11764193_at / RFU TMEM53 (11763286_at) / Fold change /veh TMEM53 (11763286_at) / RFU MAGEB2 (11727129_at) / Fold change /veh MAGEB2 (11727129_at) / RFU TMEM200A (11744735_a_at) / Fold change /veh TMEM200A (11744735_a_at) / RFU CCDC152 (11751479_a_at) / Fold change /veh CCDC152 (11751479_a_at) / RFU FAM211A (11726209_a_at) / Fold change /veh FAM211A (11726209_a_at) / RFU RGS16 (11746705_a_at) / Fold change /veh RGS16 (11746705_a_at) / RFU VCAN (11755009_s_at) / Fold change /veh VCAN (11755009_s_at) / RFU RHOB (11743442_s_at) / Fold change /veh RHOB (11743442_s_at) / RFU RGS16 (11720943_a_at) / Fold change /veh RGS16 (11720943_a_at) / RFU RGS16 (11720944_at) / Fold change /veh RGS16 (11720944_at) / RFU, VPS4B / Fold change vs veh, VPS4B / RFU, CREB1 / Fold change vs veh, CREB1 / RFU, DNAJC13 / Fold change vs veh, DNAJC13 / RFU, GNAQ / Fold change vs veh, GNAQ / RFU, CDK5R1 / Fold change vs veh, CDK5R1 / RFU, ZRANB3 / Fold change vs veh, ZRANB3 / RFU, CUL4A / Fold change vs veh, CUL4A / RFU, CCNY / Fold change vs veh, CCNY / RFU, UFL1 / Fold change vs veh, UFL1 / RFU, COG3 / Fold change vs veh, COG3 / RFU, DIAPH2 / Fold change vs veh, DIAPH2 / RFU, SKA2 / Fold change vs veh, SKA2 / RFU, AFF3 / Fold change vs veh, AFF3 / RFU, LMF1 / Fold change vs veh, LMF1 / RFU, IPO11 / Fold change vs veh, IPO11 / RFU, DFFB / Fold change vs veh, DFFB / RFU, FOXP1 / Fold change vs veh, FOXP1 / RFU, CARD8 / Fold change vs veh, CARD8 / RFU, STRN3 / Fold change vs veh, STRN3 / RFU, ADK / Fold change vs veh, ADK / RFU, RASSF2 / Fold change vs veh, RASSF2 / RFU, WIPF1 / Fold change vs veh, WIPF1 / RFU, LARP1B / Fold change vs veh, LARP1B / RFU, RASA1 / Fold change vs veh, RASA1 / RFU, RB1 / Fold change vs veh, RB1 / RFU, PPFIA1 / Fold change vs veh, PPFIA1 / RFU, MAT2A / Fold change vs veh, MAT2A / RFU, CCT5 / Fold change vs veh, CCT5 / RFU, WDR92 / Fold change vs veh, WDR92 / RFU, CUX1 / Fold change vs veh, CUX1 / RFU, TTC7A / Fold change vs veh, TTC7A / RFU, TMEM135 / Fold change vs veh, TMEM135 / RFU, DEPTOR / Fold change vs veh, DEPTOR / RFU, CPM / Fold change vs veh, CPM / RFU, DNAJB6 / Fold change vs veh, DNAJB6 / RFU, CACNA2D3 / Fold change vs veh, CACNA2D3 / RFU, DTX4 / Fold change vs veh, DTX4 / RFU, TFCP2 / Fold change vs veh, TFCP2 / RFU, GMCL1 /// GMCL1P1 / Fold change vs veh, GMCL1 /// GMCL1P1 / RFU, AEBP2 / Fold change vs veh, AEBP2 / RFU, SNHG1 /// SNORD22 /// SNORD25 /// SNORD26 /// SNORD27 /// SNORD28 /// SNORD29 /// SNORD31 / Fold change vs veh, SNHG1 /// SNORD22 /// SNORD25 /// SNORD26 /// SNORD27 /// SNORD28 /// SNORD29 /// SNORD31 / Fold change (Aza/veh), C12orf56 (ProbeSet 11735607_a_at) / Fold change (ACY-1035/veh), C12orf56 (ProbeSet 11735607_a_at) / Fold change (Aza/veh), FGFR1OP (ProbeSet 11751329_s_at) / Fold change (ACY-1035/veh), FGFR1OP (ProbeSet 11751329_s_at) / Fold change (Aza/veh), VPS36 (ProbeSet 11739960_a_at) / Fold change (ACY-1035/veh), VPS36 (ProbeSet 11739960_a_at) / RFU SYPL1 (11715823_x_at) / Fold change /veh SYPL1 (11715823_x_at) / RFU IGFBP7 (11715501_s_at) / Fold change /veh IGFBP7 (11715501_s_at) / RFU REEP3 (11722064_at) / Fold change /veh REEP3 (11722064_at) / RFU IGLL1 (11728026_x_at) / Fold change /veh IGLL1 (11728026_x_at): dose or concentration left out as unconfirmed
Settings: MV-4-11 cells, 48 hours

## Nc1ccc(-c2cccs2)cc1NC(=O)c1ccc2c(c1)cc(C1CC1)n2CCN1CCOCC1 [ACY-1035]
  RFU KRTAP10-11 (11738290_x_at): 38.61 RFU
